In experiment [1] the test system is Bacteroides. Description: Antimicrobial activity against Bacteroides group obtained from patient with Clostridium difficile infection assessed as bacterial count per gram of wet stool at 125 mg/kg, po administered QID measured on day 10 by the two-tailed Wilcoxon matched-pair, signed-rank test. The experiment is classed as functional, Feces.
Experiment [2] relates to Clostridioides difficile. As to the kind of experiment: Antimicrobial activity against Clostridium difficile obtained from patient with Clostridium difficile infection assessed as bacterial count per gram of wet stool at 125 mg/kg, po BID measured on day 10 by the two-tailed Wilcoxon matched-pair, signed-rank test. Type of experiment: functional, organism-based. On the set-up: dose 125 mg/kg. As to conditions: Feces.

The test system of experiment [3] is Clostridioides difficile. Description: Antimicrobial activity against Clostridium difficile obtained from patient with Clostridium difficile infection assessed as bacterial count per gram of wet stool at 125 mg/kg, po BID measured on day 4 by the two-tailed Wilcoxon matched-pair, signed-rank test. The experiment is classed as functional, organism-based. On the set-up: dose 125 mg/kg. Conditions: Feces.

In experiment [4] the test system is Clostridioides difficile. As to the kind of experiment: Antimicrobial activity against Clostridium difficile obtained from patient with Clostridium difficile infection assessed as bacterial count per gram of wet stool at 125 mg/kg, po BID measured at 21 to 28 days by the two-tailed Wilcoxon matched-pair, signed-rank test. Type of experiment: functional, Feces.

The test system of experiment [5] is Clostridioides difficile. Description: Antimicrobial activity against Clostridium difficile obtained from patient with Clostridium difficile infection assessed as reduction in bacterial cytotoxin B in patients at 200 mg/kg, po BID measured at 21 to 28 days by the two-tailed Wilcoxon matched-pair, signed-rank test. Type of experiment: functional, organism-based. Details: dose 200 mg/kg.

In experiment [6] the test system is Bacteroides sp. As to the kind of experiment: Antimicrobial activity against […] Bacteroides sp. The experiment is classed as functional.
In experiment [7] the test system is Bacteroides. As to the kind of experiment: Antimicrobial activity against Bacteroides group obtained from patient with Clostridium difficile infection assessed as bacterial count per gram of wet stool at 100 mg/kg, po BID measured on day 10 by the two-tailed Wilcoxon matched-pair, signed-rank test. Type of experiment: functional, Feces.
The test system of experiment [8] is Clostridioides difficile. As to the kind of experiment: Antimicrobial activity against Clostridium difficile obtained from patient with Clostridium difficile infection assessed as bacterial count per gram of wet stool at 50 mg/kg, po BID measured at 21 to 28 days by the two-tailed Wilcoxon matched-pair, signed-rank test. Type of experiment: functional, Feces.

For experiment [9], the system named is Bacteroides. As to the kind of experiment: Antimicrobial activity against Bacteroides group obtained from patient with Clostridium difficile infection assessed as bacterial count per gram of wet stool at 200 mg/kg, po BID measured on day 10 by the two-tailed Wilcoxon matched-pair, signed-rank test. Type of experiment: functional, Feces.
Experiment [10] deals with Clostridioides difficile. Description: Antimicrobial activity against Clostridium difficile obtained from patient with Clostridium difficile infection assessed as bacterial count per gram of wet stool at 100 mg/kg, po BID measured on day 4 by the two-tailed Wilcoxon matched-pair, signed-rank test. On the set-up: dose 100 mg/kg. The experiment is classed as functional, organism-based. As to conditions: Feces.

Experiment [11] has as its system Clostridioides difficile. As to the kind of experiment: Antimicrobial activity against Clostridium difficile obtained from patient with Clostridium difficile infection assessed as bacterial count per gram of wet stool at 50 mg/kg, po BID measured on day 4 by the two-tailed Wilcoxon matched-pair, signed-rank test. The experiment is classed as functional, organism-based. Details: dose 50 mg/kg. As to conditions: Feces.

Experiment [12] deals with Clostridioides difficile. As to the kind of experiment: Antimicrobial activity against Clostridium difficile obtained from patient with Clostridium difficile infection assessed as bacterial count per gram of wet stool at 200 mg/kg, po BID measured on day 8 by the two-tailed Wilcoxon matched-pair, signed-rank test. The experiment is classed as functional, organism-based. Conditions: Feces. On the set-up: dose 200 mg/kg.

The subject of experiment [13] is Bacteroides. Description: Antimicrobial activity against Bacteroides group obtained from patient with Clostridium difficile infection assessed as bacterial count per gram of wet stool at 50 mg/kg, po BID measured on day 10 by the two-tailed Wilcoxon matched-pair, signed-rank test. Type of experiment: functional, Feces.
The test system of experiment [14] is Clostridioides difficile. As to the kind of experiment: Antimicrobial activity against Clostridium difficile obtained from patient with Clostridium difficile infection assessed as bacterial count per gram of wet stool at 200 mg/kg, po BID measured on day 4 by the two-tailed Wilcoxon matched-pair, signed-rank test. On the set-up: dose 200 mg/kg. As to conditions: Feces. The experiment is classed as functional, organism-based.

Experiment [15] deals with Clostridioides difficile. Description: Antimicrobial activity against Clostridium difficile obtained from patient with Clostridium difficile infection assessed as bacterial count per gram of wet stool at 200 mg/kg, po BID measured on day 10 by the two-tailed Wilcoxon matched-pair, signed-rank test. Details: dose 200 mg/kg. As to conditions: Feces. Type of experiment: functional, organism-based.

The test system of experiment [16] is Clostridioides difficile. As to the kind of experiment: Antimicrobial activity against Clostridium difficile obtained from patient with Clostridium difficile infection assessed as reduction in bacterial cytotoxin B in patients at 100 mg/kg, po BID measured at 21 to 28 days by the two-tailed Wilcoxon matched-pair, signed-rank test. Type of experiment: functional, organism-based. Details: dose 100 mg/kg.

Experiment [17] relates to Clostridioides difficile. As to the kind of experiment: Antimicrobial activity against Clostridium difficile obtained from patient with Clostridium difficile infection assessed as bacterial count per gram of wet stool at 50 mg/kg, po BID measured on day 10 by the two-tailed Wilcoxon matched-pair, signed-rank test. Type of experiment: functional, organism-based. On the set-up: dose 50 mg/kg. Conditions: Feces.

In experiment [18] the test system is Bacteroides sp. As to the kind of experiment: Antimicrobial activity against […] gram-negative Bacteroides sp. Type of experiment: functional.
Experiment [19] concerns Clostridioides difficile. Description: Antimicrobial activity against Clostridium difficile. The experiment is classed as functional.
The subject of experiment [20] is Clostridioides difficile. Description: Antimicrobial activity against Clostridium difficile obtained from patient with Clostridium difficile infection assessed as bacterial count per gram of wet stool at 200 mg/kg, po BID measured at 21 to 28 days by the two-tailed Wilcoxon matched-pair, signed-rank test. Type of experiment: functional, Feces.
For experiment [21], the system named is Clostridioides difficile. As to the kind of experiment: Antimicrobial activity against Clostridium difficile obtained from patient with Clostridium difficile infection assessed as bacterial count per gram of wet stool at 100 mg/kg, po BID measured at 21 to 28 days by the two-tailed Wilcoxon matched-pair, signed-rank test. The experiment is classed as functional, Feces.

Experiment [22] deals with Clostridioides difficile. Description: Antimicrobial activity against Clostridium difficile obtained from patient with Clostridium difficile infection assessed as bacterial count per gram of wet stool at 100 mg/kg, po BID measured on day 10 by the two-tailed Wilcoxon matched-pair, signed-rank test. Type of experiment: functional, organism-based. As to conditions: Feces. On the set-up: dose 100 mg/kg.

Structures are written as SMILES. In brackets after ≈: the same amount, converted by molar mass. Activity calls are given as the source filed them. No cut-off for these calls is given here.

Turning to `CN[C@H](CC(C)C)C(=O)N[C@H]1C(=O)N[C@@H](CC(N)=O)C(=O)N[C@H]2C(=O)N[C@H]3C(=O)N[C@H](C(=O)N[C@H](C(=O)O)c4cc(O)cc(O)c4-c4cc3ccc4O)[C@H](O)c3ccc(c(Cl)c3)Oc3cc2cc(c3O[C@@H]2O[C@H](CO)[C@@H](O)[C@H](O)[C@H]2O[C@H]2C[C@](C)(N)[C@H](O)[C@H](C)O2)Oc2ccc(cc2Cl)[C@H]1O` [VANCOMYCIN], the values for the log10cfu in the experiment with Bacteroides [1] and in the experiment on Clostridioides difficile [4] were 3.6 and 5.4, respectively. Besides, the result in the experiment with Clostridioides difficile [2] and in the experiment with Clostridioides difficile [3] was Active.
What is called MIC90 is the lowest concentration that inhibits either 90% of growth or 90% of the strains tested, depending on the study. Low readings indicate higher susceptibility, high ones lower susceptibility. On to `CCc1c(Cl)c(O)c(Cl)c(O)c1C(=O)O[C@H]1[C@H](O)[C@H](OC)[C@H](OC/C2=C\C=C\C[C@H](O)/C(C)=C/[C@H](CC)[C@@H](O[C@@H]3OC(C)(C)[C@@H](OC(=O)C(C)C)[C@H](O)[C@@H]3O)/C(C)=C/C(C)=C/C[C@@H]([C@@H](C)O)OC2=O)O[C@@H]1C` [FIDAXOMICIN], for which the result with Clostridioides difficile [5], with Clostridioides difficile [10], with Clostridioides difficile [11], in the experiment with Clostridioides difficile [12], with Clostridioides difficile [14] and in the experiment with Clostridioides difficile [15] was Active. The result in the experiment on Clostridioides difficile [16], in the experiment with Clostridioides difficile [17] and with Clostridioides difficile [22] was Active. Further, the MIC90 against Bacteroides sp. [6] is more than 1020 µg/mL; against Bacteroides sp. [18], more than 1020 µg/mL; in the experiment with Clostridioides difficile [19] it was 0.12 µg/mL (≈ 0.113 µM). Further, the log10cfu with Bacteroides [7] came to 6.3; in the experiment with Clostridioides difficile [8], 3.9; in the experiment on Bacteroides [9], 7.3; in the experiment on Bacteroides [13], 8.2; in the experiment with Clostridioides difficile [20], 3.1; in the experiment on Clostridioides difficile [21], 3.6.

For the origin of these results see ChEMBL document CHEMBL1629573, “OPT-80 eliminates Clostridium difficile and is sparing of bacteroides species during treatment of C. difficile infection” (2009).
